# Results: US9096591B2, “Tetracyclic compounds” (Medivation Technologies, Inc., priority 2007, dated 2015)
# Assays:
# [1] = biological target: T1, human recombinant histamine H2 receptor (Homo sapiens, UniProt P25021); test: Histamine H2 radioligand binding ([125I]Aminopotentidine); conditions: percent inhibition of specific binding; screened at 1 μM; read-out: Inhibition of ligand binding, Hist. H2
# T1 construct: expressed in transfected cells; host or cells: CHO-K1 cells
# How it was run: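 This radioligand binding assay measured displacement of [125I]Aminopotentidine from recombinant human histamine H2 receptors. Compounds were dissolved in 1% DMSO vehicle. Specific binding was calculated by subtracting non-specific binding, defined using 3 μM Tiotidine, and activity was reported as percentage inhibition of that specific binding.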
# [2] = biological target: T2, human recombinant adrenergic α2B receptor (Homo sapiens, UniProt P18089); test: Adrenergic α2B radioligand binding ([3H]Rauwolscine); design: Inhibition of ligand binding, Adren. alpha2B: concentration or dose not given beside the values; conditions: percent inhibition of specific binding
# T2 construct: expressed in transfected cells; host or cells: CHO-K1 cells
# T2 sequence (P18089 1-450): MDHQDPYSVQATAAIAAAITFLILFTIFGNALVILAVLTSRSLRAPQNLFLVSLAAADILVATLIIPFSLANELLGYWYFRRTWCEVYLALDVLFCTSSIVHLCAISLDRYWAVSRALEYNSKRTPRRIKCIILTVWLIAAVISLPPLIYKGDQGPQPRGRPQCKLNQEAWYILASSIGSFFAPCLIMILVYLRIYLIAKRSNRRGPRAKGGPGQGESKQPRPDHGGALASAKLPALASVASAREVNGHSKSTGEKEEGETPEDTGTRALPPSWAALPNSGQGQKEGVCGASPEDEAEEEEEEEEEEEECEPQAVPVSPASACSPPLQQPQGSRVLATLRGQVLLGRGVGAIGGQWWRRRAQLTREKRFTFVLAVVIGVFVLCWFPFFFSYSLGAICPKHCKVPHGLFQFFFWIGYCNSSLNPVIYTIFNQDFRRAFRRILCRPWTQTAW
# How it was run: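 Incubation ran 60 minutes at 25 °C in modified Tris-HCl buffer (50 mM, pH 7.4, 12.5 mM MgCl2, 1 mM EDTA, 0.2% BSA) using CHO-K1-expressed human receptor.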
# [3] = biological target: T3, human recombinant dopamine D2L receptor (Homo sapiens, UniProt P14416); test: Dopamine D2L radioligand binding ([3H]Spiperone); conditions: percent inhibition of specific binding
# T3 construct: expressed in transfected cells; host or cells: CHO cells
# T3 sequence (P14416 whole entry): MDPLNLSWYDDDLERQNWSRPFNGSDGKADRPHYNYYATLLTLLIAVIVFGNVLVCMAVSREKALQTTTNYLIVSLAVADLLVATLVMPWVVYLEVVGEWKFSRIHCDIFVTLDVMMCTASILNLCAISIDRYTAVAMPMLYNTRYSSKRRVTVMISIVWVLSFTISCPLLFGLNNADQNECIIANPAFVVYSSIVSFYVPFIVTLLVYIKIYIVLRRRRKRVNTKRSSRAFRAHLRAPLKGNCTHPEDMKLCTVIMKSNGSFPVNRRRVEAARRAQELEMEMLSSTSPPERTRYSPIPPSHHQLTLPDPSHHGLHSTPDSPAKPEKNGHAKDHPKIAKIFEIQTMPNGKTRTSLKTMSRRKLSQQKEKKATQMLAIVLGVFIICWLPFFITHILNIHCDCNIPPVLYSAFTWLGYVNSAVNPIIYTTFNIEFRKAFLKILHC
# Method: Non-specific binding was estimated in the presence of 10 μM Haloperidol. Receptor proteins were filtered and washed, the filters were then counted to determine [^3H]Spiperone specifically bound. […] Biochemical assay results are presented as the percent inhibition of specific binding in Table 6.
# [4] = biological target: T4, human recombinant serotonin (5-Hydroxytryptamine) 5-HT2C receptor (Homo sapiens, UniProt P28335); test: Serotonin 5-HT2C radioligand binding ([3H]Mesulergine); design: Inhibition of ligand binding, Ser. 5-HT2C: concentration or dose not given beside the values; conditions: percent inhibition of specific binding
# T4 construct: expressed in transfected cells; host or cells: CHO-K1 cells
# T4 sequence (P28335 33-458): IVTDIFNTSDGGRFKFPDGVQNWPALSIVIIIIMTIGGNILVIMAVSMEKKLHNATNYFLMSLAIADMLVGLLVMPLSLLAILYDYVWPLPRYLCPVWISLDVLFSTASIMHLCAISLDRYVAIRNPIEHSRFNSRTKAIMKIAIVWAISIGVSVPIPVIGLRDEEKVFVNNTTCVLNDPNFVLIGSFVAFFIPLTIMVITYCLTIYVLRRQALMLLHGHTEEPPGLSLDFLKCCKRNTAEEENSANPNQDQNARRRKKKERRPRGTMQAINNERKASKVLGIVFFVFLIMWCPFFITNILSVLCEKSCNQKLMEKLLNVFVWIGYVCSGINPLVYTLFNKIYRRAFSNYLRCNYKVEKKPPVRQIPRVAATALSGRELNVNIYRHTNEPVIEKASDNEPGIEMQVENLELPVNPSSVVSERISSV
# Method: (§1) Compounds of the invention were incubated with 1 nM [^3H]Mesulergine for 60 minutes at 25° C. Non-specific binding was estimated in the presence of 1 μM Mianserin. Receptor proteins were filtered and washed, the filters were then counted to determine [^3H]Mesulergine specifically bound. […] Biochemical assay results are presented as the percent inhibition of specific binding in Table 6.
# [5] = biological target: T5, human recombinant serotonin (5-Hydroxytryptamine) 5-HT2A receptor (Homo sapiens, UniProt P28223); test: Serotonin 5-HT2A radioligand binding ([3H]Ketanserin); conditions: percent inhibition of specific binding
# T5 construct: expressed in transfected cells; host or cells: CHO-K1 cells
# T5 sequence (P28223 whole entry): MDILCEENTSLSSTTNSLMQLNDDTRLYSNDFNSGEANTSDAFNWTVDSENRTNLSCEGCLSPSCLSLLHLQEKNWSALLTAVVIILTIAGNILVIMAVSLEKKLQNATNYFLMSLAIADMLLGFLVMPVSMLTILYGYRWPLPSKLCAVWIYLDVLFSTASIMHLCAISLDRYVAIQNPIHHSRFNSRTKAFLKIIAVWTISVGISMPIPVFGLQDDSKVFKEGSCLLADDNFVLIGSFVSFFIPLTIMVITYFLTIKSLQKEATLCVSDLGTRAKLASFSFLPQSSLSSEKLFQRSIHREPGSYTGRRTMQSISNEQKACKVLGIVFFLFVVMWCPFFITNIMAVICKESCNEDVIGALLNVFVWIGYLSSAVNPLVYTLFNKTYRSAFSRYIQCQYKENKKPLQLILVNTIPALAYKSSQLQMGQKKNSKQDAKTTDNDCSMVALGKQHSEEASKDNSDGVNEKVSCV
# Method: as §1, with “with 0.5” for “with 1”, “nM [^3H]Ketanserin” for “nM [^3H]Mesulergine”, “determine [^3H]Ketanserin” for “determine [^3H]Mesulergine”
# [6] = biological target: T6, human recombinant serotonin (5-Hydroxytryptamine) 5-HT6 receptor (Homo sapiens, UniProt P50406); test: Serotonin 5-HT6 radioligand binding ([3H]LSD); design: Inhibition of ligand binding, Ser. 5-HT6: concentration or dose not given beside the values; conditions: percent inhibition of specific binding
# T6 construct: expressed in transfected cells; host or cells: human HeLa cells
# T6 sequence (P50406 whole entry): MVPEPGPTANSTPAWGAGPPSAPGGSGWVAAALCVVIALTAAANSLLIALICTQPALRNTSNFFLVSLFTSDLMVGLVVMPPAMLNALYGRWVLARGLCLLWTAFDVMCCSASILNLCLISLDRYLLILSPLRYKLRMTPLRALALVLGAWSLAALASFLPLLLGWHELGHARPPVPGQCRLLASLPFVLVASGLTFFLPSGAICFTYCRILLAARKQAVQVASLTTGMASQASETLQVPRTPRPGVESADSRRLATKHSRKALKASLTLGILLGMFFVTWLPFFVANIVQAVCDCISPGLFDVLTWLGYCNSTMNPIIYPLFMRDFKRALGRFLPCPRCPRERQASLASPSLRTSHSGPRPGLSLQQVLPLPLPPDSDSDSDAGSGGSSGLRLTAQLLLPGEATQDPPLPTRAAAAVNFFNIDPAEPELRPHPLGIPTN
# Source text: Receptor proteins were filtered and washed, the filters were then counted to determine [3H]LSD specifically bound. […] Biochemical assay results are presented as the percent inhibition of specific binding in Table 6.
# T1 sequence (P25021 whole entry): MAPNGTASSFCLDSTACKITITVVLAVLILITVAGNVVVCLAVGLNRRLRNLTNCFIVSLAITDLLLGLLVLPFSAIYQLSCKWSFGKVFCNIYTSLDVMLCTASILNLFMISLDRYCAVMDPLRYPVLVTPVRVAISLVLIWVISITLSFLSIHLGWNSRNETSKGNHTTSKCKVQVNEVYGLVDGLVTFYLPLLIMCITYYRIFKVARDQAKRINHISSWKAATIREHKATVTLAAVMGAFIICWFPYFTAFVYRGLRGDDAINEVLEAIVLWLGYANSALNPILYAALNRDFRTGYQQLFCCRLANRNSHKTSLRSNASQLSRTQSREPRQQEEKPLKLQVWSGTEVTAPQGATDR
Compound,inhibition at 1 µM [1] [%],"Inhibition of ligand binding, Adren. alpha2B [2] [%]","Inhibition of ligand binding, Dop. D2L [3] [%]","Inhibition of ligand binding, Ser. 5-HT2C [4] [%]","Inhibition of ligand binding, Ser. 5-HT2A [5] [%]","Inhibition of ligand binding, Ser. 5-HT6 [6] [%]"
"Cc1ccc2c(c1)c1c(n2CC(=O)N2Cc3ccccc3C2)CCN(C)C1 [Compound 397, 2-(1,2,3,4-tetrahydro-2,8-dimethylpyrido[4,3-b]indol-5-yl)-1-(isoindolin-2-yl)ethanone]",32,40,5,44,50,−9
"Cc1ccc2c(c1)c1c(n2CC(=O)N2CCc3ccccc3C2)CCN(C)C1 [Compound 398, 2-(1,2,3,4-tetrahydro-2,8-dimethylpyrido[4,3-b]indol-5-yl)-1-(3,4-dihydroisoquinolin-2(1H)-yl)ethanone]",24,50,8,69,85,15
"Cc1ccc2c(c1)c1c(n2CC(=O)N2CCSCC2)CCN(C)C1 [Compound 399, 2-(1,2,3,4-tetrahydro-2,8-dimethylpyrido[4,3-b]indol-5-yl)-1-thiomorpholinoethanone]",10,11,0,73,8,−5
"Cc1ccc2c(c1)c1c(n2CC(=O)N2CCCC(C)C2)CCN(C)C1 (stereo not drawn) [Compound 401, 2-(1,2,3,4-tetrahydro-2,8-dimethylpyrido[4,3-b]indol-5-yl)-1-(3-methylpiperidin-1-yl)ethanone]",14,3,−12,39,17,1
"Cc1ccc(CCn2c3c(c4cc(Cl)ccc42)CN(c2cccc(C(F)(F)F)c2)CC3)cn1 [Compound 403, 8-Chloro-5-[2-(6-methyl-pyridin-3-yl)-ethyl]-2-(3-trifluoromethyl-phenyl)-2,3,4,5-tetrahydro-1H-pyrido[4,3-b]indole]",10,46,2,35,32,0
"Cc1ccc(CCn2c3c(c4cc(Cl)c(F)cc42)CN(C)CC3)cn1 [Compound 404, 8-Chloro-7-fluoro-2-methyl-5-[2-(6-methyl-pyridin-3-yl)-ethyl]-2,3,4,5-tetrahydro-1H-pyrido[4,3-b]indole]",88,95,35,78,88,94
"CN1CCN(CCn2c3c(c4cc(Cl)ccc42)CN(C)CC3)CC1 [Compound 417, 8-chloro-2,3,4,5-tetrahydro-2-methyl-5-(2-(4-methylpiperazin-1-yl)ethyl)-1H-pyrido[4,3-b]indole]",19,−1,−12,29,23,5
"CN1CCc2c(c3cc(Cl)ccc3n2CCc2cncnc2)C1 [Compound 424, 8-Chloro-2-methyl-5-(2-pyrimidin-5-yl-ethyl)-2,3,4,5-tetrahydro-1H-pyrido[4,3-b]indole]",19,94,17,76,52,82
"Cc1ccc2c(c1)c1c(n2CCc2cncc(C(F)(F)F)c2)CCN(C)C1 [Compound 425, 5-(2-(5-(trifluoromethyl)pyridin-3-yl)ethyl)-2,3,4,5-tetrahydro-2,8-dimethyl-1H-pyrido[4,3-b]indole]",85,99,−1,72,84,64
"CN1CCc2c(c3cc(Cl)ccc3n2CCc2cncc(C(F)(F)F)c2)C1 [Compound 426, 8-chloro-5-(2-(5-(trifluoromethyl)pyridin-3-yl)ethyl)-2,3,4,5-tetrahydro-2-methyl-1H-pyrido[4,3-b]indole]",66,98,−7,80,85,65
"Cc1cncc(CCn2c3c(c4cc(C)ccc42)CN(C)CC3)c1 [Compound 429, 2,3,4,5-tetrahydro-2,8-dimethyl-5-(2-(5-methylpyridin-3-yl)ethyl)-1H-pyrido[4,3-b]indole]",68,115,23,84,76,79
"Cc1ccc2c(c1)c1c(n2CCc2cncc(Cl)c2)CCN(C)C1 [Compound 443, 5-(2-(5-chloropyridin-3-yl)ethyl)-2,3,4,5-tetrahydro-2,8-dimethyl-1H-pyrido[4,3-b]indole]",94,117,29,95,94,96
"CN1CCc2c(c3cc(Cl)ccc3n2CCc2cncc(Cl)c2)C1 [Compound 444, 8-chloro-5-(2-(5-chloropyridin-3-yl)ethyl)-2,3,4,5-tetrahydro-2-methyl-1H-pyrido[4,3-b]indole]",80,113,32,95,95,96
"Cc1ccc2c(c1)c1c(n2CC(C)c2ccc(F)cc2)CCN(C)C1 (stereo not drawn) [Compound 456, 5-(2-(4-fluorophenyl)propyl)-2,3,4,5-tetrahydro-2,8-dimethyl-1H-pyrido[4,3-b]indole]",98,110,76,99,104,98
